{"source": "paper PMC7714403", "about": "(JCI Insight, 2020)", "test_in_all_cases": "KiNativ, MOLM13 live cells", "type_in_all_cases": "cell-based", "key": {"RSK2 domain2": {"target": "T1, RSK2 domain2 (Homo sapiens, UniProt P51812)", "T1 construct": "RSK2 domain2", "conditions": "MOLM-13; 100 nM, 2 hours; Lys2; read-out: Inhibition vs DMSO", "method": "(§1) Samples were analyzed by KiNativ in situ kinase profiling by ActivX Biosciences."}, "CaMK1d": {"target": "CaMK1d (Homo sapiens, UniProt Q8IU85)", "conditions": "MOLM-13; 100 nM, 2 hours; Lys1; read-out: Inhibition vs DMSO", "method": "as §1"}, "HPK1": {"target": "HPK1 (Homo sapiens, UniProt Q92918)", "sequence (Q92918 whole entry)": "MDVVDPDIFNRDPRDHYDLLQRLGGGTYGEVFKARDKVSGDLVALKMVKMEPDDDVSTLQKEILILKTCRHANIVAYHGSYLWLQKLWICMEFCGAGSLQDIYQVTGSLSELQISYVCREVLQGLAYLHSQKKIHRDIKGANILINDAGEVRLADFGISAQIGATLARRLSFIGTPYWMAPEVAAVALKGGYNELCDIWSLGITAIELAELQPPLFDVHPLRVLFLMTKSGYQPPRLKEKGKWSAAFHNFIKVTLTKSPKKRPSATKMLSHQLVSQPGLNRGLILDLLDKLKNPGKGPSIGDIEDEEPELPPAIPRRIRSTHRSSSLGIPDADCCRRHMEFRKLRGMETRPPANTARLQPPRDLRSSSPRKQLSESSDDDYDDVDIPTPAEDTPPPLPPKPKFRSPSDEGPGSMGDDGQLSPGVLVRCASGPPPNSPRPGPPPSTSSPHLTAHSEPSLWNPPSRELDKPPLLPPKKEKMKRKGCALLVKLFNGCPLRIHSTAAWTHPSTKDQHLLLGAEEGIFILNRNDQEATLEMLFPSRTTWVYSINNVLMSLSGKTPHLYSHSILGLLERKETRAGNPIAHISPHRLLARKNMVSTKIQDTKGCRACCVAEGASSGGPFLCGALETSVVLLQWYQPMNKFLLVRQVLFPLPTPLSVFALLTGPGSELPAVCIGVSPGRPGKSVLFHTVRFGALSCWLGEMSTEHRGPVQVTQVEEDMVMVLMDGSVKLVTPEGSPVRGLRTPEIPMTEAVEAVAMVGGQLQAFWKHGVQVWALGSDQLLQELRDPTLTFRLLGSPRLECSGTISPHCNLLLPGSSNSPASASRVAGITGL", "conditions": "MOLM-13, 2 h, 100 nM", "method": "as §1"}, "PI4KB": {"target": "PI4KB (Homo sapiens, UniProt Q9UBF8)", "sequence (Q9UBF8 whole entry)": "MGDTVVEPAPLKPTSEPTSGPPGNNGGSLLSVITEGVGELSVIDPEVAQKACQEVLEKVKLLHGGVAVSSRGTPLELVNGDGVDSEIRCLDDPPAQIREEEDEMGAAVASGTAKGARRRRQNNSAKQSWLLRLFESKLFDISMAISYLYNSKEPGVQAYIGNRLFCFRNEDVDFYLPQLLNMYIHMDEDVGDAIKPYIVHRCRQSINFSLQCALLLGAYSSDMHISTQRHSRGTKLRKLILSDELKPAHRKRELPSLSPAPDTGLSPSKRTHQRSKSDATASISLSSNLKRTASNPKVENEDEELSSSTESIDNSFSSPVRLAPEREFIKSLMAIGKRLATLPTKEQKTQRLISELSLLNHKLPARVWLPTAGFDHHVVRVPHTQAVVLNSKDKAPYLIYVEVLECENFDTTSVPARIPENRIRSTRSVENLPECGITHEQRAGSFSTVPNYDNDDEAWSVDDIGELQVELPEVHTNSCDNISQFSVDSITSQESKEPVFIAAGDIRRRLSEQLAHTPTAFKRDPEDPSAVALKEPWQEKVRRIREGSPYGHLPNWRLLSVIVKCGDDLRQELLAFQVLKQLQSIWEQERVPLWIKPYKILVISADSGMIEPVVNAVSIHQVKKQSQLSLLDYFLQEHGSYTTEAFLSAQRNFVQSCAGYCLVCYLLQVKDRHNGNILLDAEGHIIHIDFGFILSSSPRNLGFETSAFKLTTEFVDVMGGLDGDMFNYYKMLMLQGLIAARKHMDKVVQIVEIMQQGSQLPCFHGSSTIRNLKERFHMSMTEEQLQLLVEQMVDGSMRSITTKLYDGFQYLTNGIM", "conditions": "MOLM-13, 2 h, 100 nM, ATP, read-out: Inhibition vs DMSO", "method": "as §1"}, "MAP3K1": {"target": "MAP3K1 (Homo sapiens, UniProt Q13233)", "conditions": "MOLM-13; 100 nM, 2 hours; Lys2; read-out: Inhibition vs DMSO", "method": "as §1"}, "MST3": {"target": "MST3 (Homo sapiens, UniProt Q9Y6E0)", "conditions": "100 nM, 2 hours; Lys2", "method": "as §1"}, "LATS2": {"target": "T2, LATS2 (Homo sapiens, UniProt Q9NRM7)", "T2 sequence (Q9NRM7 1-1088)": "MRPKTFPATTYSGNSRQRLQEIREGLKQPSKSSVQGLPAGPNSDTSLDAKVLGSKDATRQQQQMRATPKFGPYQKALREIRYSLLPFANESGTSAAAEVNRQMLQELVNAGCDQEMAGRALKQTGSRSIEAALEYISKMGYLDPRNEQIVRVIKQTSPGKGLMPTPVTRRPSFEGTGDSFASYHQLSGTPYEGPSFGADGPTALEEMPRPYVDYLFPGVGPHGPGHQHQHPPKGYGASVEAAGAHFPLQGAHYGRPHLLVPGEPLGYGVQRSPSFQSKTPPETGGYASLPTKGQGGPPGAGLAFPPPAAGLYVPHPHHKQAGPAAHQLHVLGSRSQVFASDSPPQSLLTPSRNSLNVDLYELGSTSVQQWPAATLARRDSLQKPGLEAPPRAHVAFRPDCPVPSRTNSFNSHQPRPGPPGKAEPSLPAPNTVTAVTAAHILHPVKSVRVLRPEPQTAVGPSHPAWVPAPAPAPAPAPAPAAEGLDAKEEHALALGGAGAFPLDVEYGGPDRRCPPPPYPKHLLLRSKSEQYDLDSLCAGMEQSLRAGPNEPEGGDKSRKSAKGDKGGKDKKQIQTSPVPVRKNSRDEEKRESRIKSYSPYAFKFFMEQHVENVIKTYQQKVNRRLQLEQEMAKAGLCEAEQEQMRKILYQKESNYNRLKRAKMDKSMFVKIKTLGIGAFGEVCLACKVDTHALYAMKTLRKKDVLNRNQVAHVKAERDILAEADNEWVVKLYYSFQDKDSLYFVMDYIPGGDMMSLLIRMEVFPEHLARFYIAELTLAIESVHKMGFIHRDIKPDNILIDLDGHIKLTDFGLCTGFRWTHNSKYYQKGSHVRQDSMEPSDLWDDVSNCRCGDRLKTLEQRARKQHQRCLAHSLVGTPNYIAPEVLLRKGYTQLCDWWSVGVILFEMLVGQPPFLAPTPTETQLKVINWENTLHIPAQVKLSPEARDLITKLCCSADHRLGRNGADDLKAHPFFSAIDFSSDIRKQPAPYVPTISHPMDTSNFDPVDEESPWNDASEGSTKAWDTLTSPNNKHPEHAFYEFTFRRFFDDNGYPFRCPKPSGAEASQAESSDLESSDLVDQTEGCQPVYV", "conditions": "100 nM, 2 hours", "method": "as §1"}, "MAP3K2": {"target": "MAP3K2 (Homo sapiens, UniProt Q9Y2U5)", "conditions": "MOLM-13; 100 nM, 2 hours; Lys1; read-out: Inhibition vs DMSO", "method": "as §1"}, "RSK1 domain1": {"target": "T3, RSK1 domain1 (Homo sapiens, UniProt Q15418)", "T3 construct": "RSK1 domain1", "conditions": "MOLM-13; 100 nM, 2 hours; Activation Loop; read-out: Inhibition vs DMSO", "method": "as §1"}, "CDC2": {"target": "CDC2 (Homo sapiens, UniProt P06493)", "sequence (P06493 whole entry)": "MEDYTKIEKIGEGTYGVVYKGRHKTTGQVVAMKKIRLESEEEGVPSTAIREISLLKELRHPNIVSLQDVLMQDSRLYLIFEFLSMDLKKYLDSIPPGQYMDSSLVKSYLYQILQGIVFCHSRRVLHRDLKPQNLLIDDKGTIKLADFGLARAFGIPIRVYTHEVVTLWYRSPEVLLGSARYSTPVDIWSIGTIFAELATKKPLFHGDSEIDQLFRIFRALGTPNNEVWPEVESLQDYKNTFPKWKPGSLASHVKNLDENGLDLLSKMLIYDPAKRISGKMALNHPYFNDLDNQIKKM", "conditions": "MOLM-13, 2 h, 100 nM", "method": "as §1"}, "NDR1": {"target": "NDR1 (Homo sapiens, UniProt Q15208)", "sequence (Q15208 whole entry)": "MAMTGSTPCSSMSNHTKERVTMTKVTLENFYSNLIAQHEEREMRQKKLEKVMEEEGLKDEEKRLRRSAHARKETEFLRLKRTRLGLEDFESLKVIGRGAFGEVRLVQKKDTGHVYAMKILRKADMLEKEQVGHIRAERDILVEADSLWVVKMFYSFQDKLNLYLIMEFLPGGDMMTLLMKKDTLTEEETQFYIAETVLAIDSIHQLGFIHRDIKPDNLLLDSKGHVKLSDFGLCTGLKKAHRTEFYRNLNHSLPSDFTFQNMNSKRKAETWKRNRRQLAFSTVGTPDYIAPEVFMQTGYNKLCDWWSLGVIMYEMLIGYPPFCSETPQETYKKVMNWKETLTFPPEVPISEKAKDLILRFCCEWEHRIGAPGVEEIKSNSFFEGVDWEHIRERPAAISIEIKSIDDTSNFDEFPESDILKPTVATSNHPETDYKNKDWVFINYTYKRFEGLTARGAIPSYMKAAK", "conditions": "MOLM-13, 2 h, 100 nM", "method": "as §1"}, "FER": {"target": "FER (Homo sapiens, UniProt P16591)", "conditions": "MOLM-13, 2 h, 100 nM", "method": "as §1"}, "MSK1 domain1": {"target": "T4, MSK1 domain1 (Homo sapiens, UniProt O75582)", "T4 construct": "MSK1 domain1", "conditions": "MOLM-13; 100 nM, 2 hours; Lys2; read-out: Inhibition vs DMSO", "method": "as §1"}, "PYK2": {"target": "PYK2 (Homo sapiens, UniProt Q14289)", "conditions": "MOLM-13; 100 nM, 2 hours; Activation Loop; read-out: Inhibition vs DMSO", "method": "as §1"}, "Erk5": {"target": "Erk5 (Homo sapiens, UniProt Q13164)", "conditions": "MOLM-13; 100 nM, 2 hours; Lys2; read-out: Inhibition vs DMSO", "method": "as §1"}, "GCN2 domain2": {"target": "T5, GCN2 domain2 (Homo sapiens, UniProt Q9P2K8)", "T5 construct": "GCN2 domain2", "T5 sequence (Q9P2K8 whole entry, the tested form may be a part)": "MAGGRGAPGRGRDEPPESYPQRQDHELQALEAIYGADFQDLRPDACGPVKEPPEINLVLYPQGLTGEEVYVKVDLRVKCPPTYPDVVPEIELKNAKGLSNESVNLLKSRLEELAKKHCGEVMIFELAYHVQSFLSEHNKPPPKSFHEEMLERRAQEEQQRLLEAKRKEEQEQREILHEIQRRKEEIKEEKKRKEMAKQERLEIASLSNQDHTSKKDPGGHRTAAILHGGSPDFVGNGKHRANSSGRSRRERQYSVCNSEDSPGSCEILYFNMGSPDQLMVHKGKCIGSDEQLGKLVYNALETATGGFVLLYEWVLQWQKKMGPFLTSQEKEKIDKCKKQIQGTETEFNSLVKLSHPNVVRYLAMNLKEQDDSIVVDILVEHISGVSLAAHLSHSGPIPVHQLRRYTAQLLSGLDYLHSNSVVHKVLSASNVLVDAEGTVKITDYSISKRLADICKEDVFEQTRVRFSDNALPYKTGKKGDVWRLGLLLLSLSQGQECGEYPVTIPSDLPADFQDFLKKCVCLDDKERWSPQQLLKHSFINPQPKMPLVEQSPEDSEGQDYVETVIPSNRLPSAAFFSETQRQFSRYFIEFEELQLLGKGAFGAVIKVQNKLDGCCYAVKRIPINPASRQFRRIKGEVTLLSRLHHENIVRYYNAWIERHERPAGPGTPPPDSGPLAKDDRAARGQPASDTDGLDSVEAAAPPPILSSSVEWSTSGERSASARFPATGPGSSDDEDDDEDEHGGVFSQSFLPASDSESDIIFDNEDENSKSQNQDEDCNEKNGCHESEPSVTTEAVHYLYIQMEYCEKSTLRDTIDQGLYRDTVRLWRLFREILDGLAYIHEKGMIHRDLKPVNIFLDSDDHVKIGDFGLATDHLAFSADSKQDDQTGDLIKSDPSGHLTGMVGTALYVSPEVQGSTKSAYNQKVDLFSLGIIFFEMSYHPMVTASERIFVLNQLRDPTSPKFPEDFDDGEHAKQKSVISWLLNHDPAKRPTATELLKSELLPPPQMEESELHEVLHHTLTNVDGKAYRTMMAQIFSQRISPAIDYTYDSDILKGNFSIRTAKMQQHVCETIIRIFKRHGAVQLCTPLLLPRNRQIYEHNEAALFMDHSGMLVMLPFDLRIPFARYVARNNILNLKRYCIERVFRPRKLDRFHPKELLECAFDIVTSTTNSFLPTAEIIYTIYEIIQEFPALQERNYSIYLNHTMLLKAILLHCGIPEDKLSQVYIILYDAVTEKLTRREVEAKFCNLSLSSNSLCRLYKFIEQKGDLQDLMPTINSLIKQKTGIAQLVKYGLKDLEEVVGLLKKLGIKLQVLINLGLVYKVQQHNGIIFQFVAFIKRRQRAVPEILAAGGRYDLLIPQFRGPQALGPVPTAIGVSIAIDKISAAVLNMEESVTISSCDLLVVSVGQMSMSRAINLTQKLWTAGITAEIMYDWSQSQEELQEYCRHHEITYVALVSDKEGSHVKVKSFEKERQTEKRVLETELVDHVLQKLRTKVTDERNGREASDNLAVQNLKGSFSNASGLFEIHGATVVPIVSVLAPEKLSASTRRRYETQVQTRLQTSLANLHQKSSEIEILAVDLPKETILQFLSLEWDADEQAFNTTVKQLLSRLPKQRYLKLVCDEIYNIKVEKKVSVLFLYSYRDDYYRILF", "conditions": "MOLM-13, 2 h, 100 nM", "method": "as §1"}, "PKR": {"target": "PKR (Homo sapiens, UniProt P19525)", "sequence (P19525 whole entry)": "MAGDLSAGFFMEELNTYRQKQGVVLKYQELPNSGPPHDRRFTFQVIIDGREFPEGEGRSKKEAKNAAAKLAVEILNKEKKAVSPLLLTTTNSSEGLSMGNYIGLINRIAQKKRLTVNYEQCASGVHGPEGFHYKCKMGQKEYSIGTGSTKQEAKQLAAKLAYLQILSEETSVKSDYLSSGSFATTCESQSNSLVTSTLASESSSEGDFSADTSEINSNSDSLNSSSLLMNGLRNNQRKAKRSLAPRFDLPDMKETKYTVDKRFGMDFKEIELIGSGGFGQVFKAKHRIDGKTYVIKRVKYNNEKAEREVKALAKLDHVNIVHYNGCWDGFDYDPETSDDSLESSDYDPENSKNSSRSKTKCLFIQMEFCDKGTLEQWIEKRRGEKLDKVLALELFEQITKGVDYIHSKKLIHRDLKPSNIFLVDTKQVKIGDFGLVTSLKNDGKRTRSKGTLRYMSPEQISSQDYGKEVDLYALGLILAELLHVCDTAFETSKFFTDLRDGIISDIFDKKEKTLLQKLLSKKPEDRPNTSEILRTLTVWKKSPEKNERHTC", "conditions": "100 nM, 2 hours", "method": "as §1"}, "DGKA": {"target": "DGKA (Homo sapiens, UniProt P23743)", "conditions": "MOLM-13; 100 nM, 2 hours; ATP; read-out: Inhibition vs DMSO", "method": "as §1"}, "Erk1": {"target": "Erk1 (Homo sapiens, UniProt P27361)", "sequence (P27361 whole entry)": "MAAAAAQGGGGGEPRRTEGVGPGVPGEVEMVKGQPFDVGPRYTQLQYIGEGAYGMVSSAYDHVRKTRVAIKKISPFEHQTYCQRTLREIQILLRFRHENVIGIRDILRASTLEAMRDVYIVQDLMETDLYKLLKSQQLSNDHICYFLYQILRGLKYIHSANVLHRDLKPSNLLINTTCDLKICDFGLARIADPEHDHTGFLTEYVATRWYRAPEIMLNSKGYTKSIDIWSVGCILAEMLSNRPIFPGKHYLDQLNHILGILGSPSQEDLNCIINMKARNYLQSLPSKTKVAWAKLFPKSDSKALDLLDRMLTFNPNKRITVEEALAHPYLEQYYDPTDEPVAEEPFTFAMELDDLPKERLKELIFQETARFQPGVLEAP", "conditions": "MOLM-13; 100 nM, 2 hours; Lys2; read-out: Inhibition vs DMSO", "method": "as §1"}, "DGKH": {"target": "DGKH (Homo sapiens, UniProt Q86XP1)", "conditions": "MOLM-13; 100 nM, 2 hours; ATP; read-out: Inhibition vs DMSO", "method": "as §1"}, "PIK3CG": {"target": "PIK3CG (Homo sapiens, UniProt P48736)", "conditions": "MOLM-13; 100 nM, 2 hours; ATP; read-out: Inhibition vs DMSO", "method": "as §1"}, "RAF1": {"target": "RAF1 (Homo sapiens, UniProt P04049)", "conditions": "MOLM-13; 100 nM, 2 hours; Lys2; read-out: Inhibition vs DMSO", "method": "as §1"}, "[1]": {"conditions": "Lys1, read-out: Inhibition vs DMSO"}, "[2]": {"conditions": "Lys2, read-out: Inhibition vs DMSO"}}, "note": "Read-outs that look alike come from different tables or passages of the source."}
{"compound": "CN1CCN(Cc2ccc(Nc3ncc(Cl)c(Nc4ccccc4S(=O)(=O)N(C)C)n3)cc2)CC1", "note": "[TP-0903]", "values": [{"measurement": "inhibition at 0.1 µM", "setting": "RSK2 domain2", "result": -47.6, "unit": "%"}, {"measurement": "inhibition at 0.1 µM", "setting": "CaMK1d", "result": 23.2, "unit": "%"}, {"measurement": "inhibition at 0.1 µM", "setting": "HPK1; [1]", "result": 58.7, "unit": "%"}, {"measurement": "inhibition at 0.1 µM", "setting": "HPK1; [2]", "result": 55.7, "unit": "%"}, {"measurement": "inhibition at 0.1 µM", "setting": "PI4KB; LLSVIVKCGDDLRQELLAFQVLK", "result": -5.9, "unit": "%"}, {"measurement": "inhibition at 0.1 µM", "setting": "PI4KB; VPHTQAVVLNSKDK", "result": -12.3, "unit": "%"}, {"measurement": "inhibition at 0.1 µM", "setting": "MAP3K1", "result": 55.7, "unit": "%"}, {"measurement": "Inhibition vs DMSO", "setting": "MST3", "result": 55.3, "unit": "%"}, {"measurement": "Inhibition vs DMSO", "setting": "LATS2; Lys1", "result": 7.9, "unit": "%"}, {"measurement": "Inhibition vs DMSO", "setting": "LATS2; Lys2", "result": -14.6, "unit": "%"}, {"measurement": "inhibition at 0.1 µM", "setting": "MAP3K2", "result": -7.5, "unit": "%"}, {"measurement": "inhibition at 0.1 µM", "setting": "RSK1 domain1", "result": -3.8, "unit": "%"}, {"measurement": "inhibition at 0.1 µM", "setting": "CDC2; [1]", "result": 2.5, "unit": "%"}, {"measurement": "inhibition at 0.1 µM", "setting": "CDC2; [2]", "result": 0.8, "unit": "%"}, {"measurement": "inhibition at 0.1 µM", "setting": "CDC2; Protein Kinase Domain, read-out: Inhibition vs DMSO", "result": -40.6, "unit": "%"}, {"measurement": "inhibition at 0.1 µM", "setting": "NDR1; [1]", "result": 3.7, "unit": "%"}, {"measurement": "inhibition at 0.1 µM", "setting": "NDR1; [2]", "result": -11.4, "unit": "%"}, {"measurement": "inhibition at 0.1 µM", "setting": "FER; Activation Loop, read-out: Inhibition vs DMSO", "result": 43.4, "unit": "%"}, {"measurement": "inhibition at 0.1 µM", "setting": "FER; [1]", "result": 19.2, "unit": "%"}, {"measurement": "inhibition at 0.1 µM", "setting": "MSK1 domain1", "result": -10.3, "unit": "%"}, {"measurement": "inhibition at 0.1 µM", "setting": "PYK2", "result": 21.6, "unit": "%"}, {"measurement": "inhibition at 0.1 µM", "setting": "Erk5", "result": 84.9, "unit": "%"}, {"measurement": "inhibition at 0.1 µM", "setting": "GCN2 domain2; [1]", "result": -22.2, "unit": "%"}, {"measurement": "inhibition at 0.1 µM", "setting": "GCN2 domain2; [2]", "result": -33.5, "unit": "%"}, {"measurement": "Inhibition vs DMSO", "setting": "PKR; Activation Loop", "result": -7.5, "unit": "%"}, {"measurement": "Inhibition vs DMSO", "setting": "PKR; Lys1", "result": -21.9, "unit": "%"}, {"measurement": "Inhibition vs DMSO", "setting": "PKR; Lys2", "result": -21.6, "unit": "%"}, {"measurement": "inhibition at 0.1 µM", "setting": "DGKA", "result": -9.4, "unit": "%"}, {"measurement": "inhibition at 0.1 µM", "setting": "Erk1", "result": -2.8, "unit": "%"}, {"measurement": "inhibition at 0.1 µM", "setting": "DGKH", "result": -1.3, "unit": "%"}, {"measurement": "inhibition at 0.1 µM", "setting": "PIK3CG", "result": -8.5, "unit": "%"}, {"measurement": "inhibition at 0.1 µM", "setting": "RAF1", "result": 0.349, "unit": "%"}]}
